Read-outs that look alike come from different tables or passages of the source.
Legend:
Alternaria solani = assay: Test C: tomato early blight, preventive spray on tomato seedlings, visual disease rating; conditions: for pest or weed control at 200 µg/mL: Alternaria solani, in Solanum lycopersicum, 168 h
[1] = test system: Puccinia recondita f. sp. tritici; assay: Test H: wheat leaf rust, curative spray on inoculated wheat seedlings, visual disease rating; conditions: for pest or weed control at 200 µg/mL: 144 h
Description: General protocol for preparing test suspensions for Tests A-J: the test compounds were first dissolved in acetone in an amount equal to 3% of the final volume and then suspended at the desired concentration (in ppm) in acetone and purified water (50/50 mix by volume) containing 250 ppm of the surfactant Trem® 014 (polyhydric alcohol esters). The resulting test suspensions were then used in Tests A-J. Spraying a 200 ppm test suspension to the point of run-off on the test plants was the equivalent of a rate of 500 g/ha. Unless otherwise indicated, the rating values indicate a 200 ppm test suspension was used. (An asterisk “*” next to the rating value indicates a 40 ppm test suspension was used.)
Wheat seedlings were inoculated with a spore suspension of Puccinia recondita f. sp. tritici (the causal agent of wheat leaf rust) and incubated in a saturated atmosphere at 20° C. for 24 h, and then moved to a growth chamber at 20° C. for 2 days. At the end of this time the test suspension was sprayed to the point of run-off, and then the seedlings were moved to a growth chamber at 20° C. for 6 days after which time visual disease ratings were made.

[2] = test system: Erysiphe graminis f sp. tritici; assay: Test J: wheat powdery mildew, preventive spray on wheat seedlings, visual disease rating; conditions: for pest or weed control at 200 µg/mL: Blumeria graminis, in Triticum aestivum, 192 h
Septoria nodorum = assay: Test F: Septoria glume blotch, preventive spray on wheat seedlings, visual disease rating; conditions: for pest or weed control at 200 µg/mL: Parastagonospora nodorum, in Triticum aestivum, 192 h
Septoria tritici = assay: Test G: wheat leaf blotch, preventive spray on wheat seedlings, visual disease rating; conditions: for pest or weed control at 200 µg/mL: Zymoseptoria tritici, in Triticum aestivum, 504 h
Botrytis cinerea = assay: Test B: tomato Botrytis, preventive spray on tomato seedlings, visual disease rating; conditions: for pest or weed control at 200 µg/mL: Botrytis cinerea, in Solanum lycopersicum, 120 h
[3] = test system: Puccinia recondita f. sp. tritici; assay: Test I: wheat leaf rust, preventive spray on wheat seedlings, visual disease rating; conditions: for pest or weed control at 200 µg/mL: 192 h
[4] = tomato early blight, 100 = 100% disease control, 0 = no control relative to controls
[5] = wheat leaf rust, curative, 100 = 100% disease control, 0 = no control relative to controls
[6] = wheat powdery mildew, 100 = 100% disease control, 0 = no control relative to controls
[7] = Septoria glume blotch, 100 = 100% disease control, 0 = no control relative to controls
[8] = wheat leaf blotch, 100 = 100% disease control, 0 = no control relative to controls
[9] = tomato Botrytis, 100 = 100% disease control, 0 = no control relative to controls
[10] = wheat leaf rust, preventive, 100 = 100% disease control, 0 = no control relative to controls
[11] = read-out: Test C rating (% disease control)
[12] = read-out: Test H rating (% disease control)
[13] = read-out: Test J rating (% disease control)
[14] = read-out: Test F rating (% disease control)
[15] = read-out: Test G rating (% disease control)
[16] = read-out: Test B rating (% disease control)
[17] = read-out: Test I rating (% disease control)
[18] = tomato early blight, preventive spray, 100 = 100% disease control, 0 = no control
[19] = wheat leaf rust, curative spray, 100 = 100% disease control, 0 = no control
[20] = wheat powdery mildew, preventive spray, 100 = 100% disease control, 0 = no control
[21] = Septoria glume blotch on wheat, preventive spray, 100 = 100% disease control, 0 = no control
[22] = wheat leaf blotch, preventive spray, 100 = 100% disease control, 0 = no control
[23] = tomato Botrytis, preventive spray, 100 = 100% disease control, 0 = no control
[24] = wheat leaf rust, preventive spray, 100 = 100% disease control, 0 = no control

Row | SMILES | Test C rating (% disease control) (Alternaria solani; [4]) [%] | Test H rating (% disease control) [1, 5] [%] | Test J rating (% disease control) [2, 6] [%] | Test F rating (% disease control) (Septoria nodorum; [7]) [%] | Test G rating (% disease control) (Septoria tritici; [8]) [%] | Test B rating (% disease control) (Botrytis cinerea; [9]) [%] | Test I rating (% disease control) [3, 10] [%] | also measured
1 | Cc1nn(C)c(Oc2ncc(C(F)(F)F)cc2F)c1-c1ccc(F)cc1Br [compound 260] | 0 | 0 | 0 | 0 | 0 | 0 | 0 | –
2 | COc1ccc(Cl)c(Nc2c(-c3ccc(F)cc3F)c(C)nn2C)c1 [compound 227] | 0 | 0 | 98 | 0 | 99 | 87 | 74 | –
3 | Cc1nn(C)c(Nc2c(F)cc(F)cc2Cl)c1-c1ccc(F)cc1Br [Compound 292, 4-(2-bromo-4-fluorophenyl)-N-(2-chloro-4,6-difluorophenyl)-1,3-dimethyl-1H-pyrazol-5-amine] | – | – | – | – | – | – | – | pest or weed control at 200 µg/mL (Alternaria solani; [11]): 99%; pest or weed control at 200 µg/mL [1, 12]: 92%; pest or weed control at 200 µg/mL [2, 13]: 100%; pest or weed control at 200 µg/mL (Septoria nodorum; [14]): 96%; pest or weed control at 200 µg/mL (Septoria tritici; [15]): 100%; pest or weed control at 200 µg/mL (Botrytis cinerea; [16]): 100%; pest or weed control at 200 µg/mL [3, 17]: 100%
4 | COc1cc(F)c(Nc2c(-c3c(F)cccc3C(F)(F)F)c(C)nn2C)c(F)c1 [compound 263] | 98 | 0 | 100 | 0 | 100 | 100 | 98 | –
5 | Cc1nn(C)c(Oc2ccc([N+](=O)[O-])cc2Cl)c1-c1ccc(F)cc1Cl [compound 119] | – | – | – | – | – | – | – | Test C rating (% disease control) (Alternaria solani; [18]): 0%; Test H rating (% disease control) [1, 19]: 16%; Test J rating (% disease control) [2, 20]: 96%; Test F rating (% disease control) (Septoria nodorum; [21]): 0%; Test G rating (% disease control) (Septoria tritici; [22]): 100%; Test B rating (% disease control) (Botrytis cinerea; [23]): 100%; Test I rating (% disease control) [3, 24]: 99%
6 | Cc1nn(C)c(Nc2cc(F)ccc2F)c1-c1c(F)cccc1F [compound 197] | 0 | 0 | 96 | 95 | 99 | 97 | 79 | –
7 | Cc1nn(C)c(Nc2ncc(F)cc2F)c1-c1ccc(F)cc1Cl [compound 154] | 99 | 41 | 100 | 97 | 100 | 99 | 100 | –
8 | Cc1nn(C)c(Nc2cc(F)ccc2F)c1-c1ccc(F)cc1F [compound 226] | 0 | 28 | 100 | 0 | 96 | 99 | 91 | –
9 | Cc1nn(C)c(Nc2c(F)cc(Cl)cc2F)c1-c1ccc(F)cc1Br [Compound 360, 4-(2-bromo-4-fluorophenyl)-N-(4-chloro-2,6-difluorophenyl)-1,3-dimethyl-1H-pyrazol-5-amine] | – | – | – | – | – | – | – | pest or weed control at 200 µg/mL (Alternaria solani; read-out: Test C disease control rating): 97%; pest or weed control at 200 µg/mL ([1]; read-out: Test H disease control rating): 79%; pest or weed control at 200 µg/mL ([2]; read-out: Test J disease control rating): 100%; pest or weed control at 200 µg/mL (Septoria nodorum; read-out: Test F disease control rating): 95%; pest or weed control at 200 µg/mL (Septoria tritici; read-out: Test G disease control rating): 100%; pest or weed control at 200 µg/mL (Botrytis cinerea; read-out: Test B disease control rating): 100%; pest or weed control at 200 µg/mL ([3]; read-out: Test I disease control rating): 100%
10 | Cc1ccc(Oc2c(-c3c(F)cc(F)cc3F)c(C)nn2C)cc1C [compound 209] | 0 | 0 | 97 | 0 | 0 | 0 | 0 | –
11 | COc1ccc(F)c(Nc2c(-c3c(F)cccc3F)c(C)nn2C)c1 [compound 216] | 0 | 0 | 99 | 0 | 76 | 96 | 26 | –
12 | Cc1nn(C)c(Nc2cc(F)c(F)cc2F)c1-c1ccc(F)cc1F [compound 229] | 17 | 0 | 98 | 0 | 99 | 99 | 91 | –
13 | Cc1nn(C)c(Nc2ccc(F)cc2Br)c1-c1ccc(F)cc1Cl [Compound 265, N-(2-bromo-4-fluorophenyl)-4-(2-chloro-4-fluorophenyl)-1,3-dimethyl-1H-pyrazol-5-amine] | – | – | – | – | – | – | – | pest or weed control at 200 µg/mL (Alternaria solani; [11]): 99%; pest or weed control at 200 µg/mL [1, 12]: 90%; pest or weed control at 200 µg/mL [2, 13]: 100%; pest or weed control at 200 µg/mL (Septoria nodorum; [14]): 78%; pest or weed control at 200 µg/mL (Septoria tritici; [15]): 100%; pest or weed control at 200 µg/mL (Botrytis cinerea; [16]): 100%; pest or weed control at 200 µg/mL [3, 17]: 100%
14 | Cc1nn(C)c(Nc2c(F)cccc2F)c1-c1ccc(F)cc1Cl [Compound 172, 4-(2-chloro-4-fluorophenyl)-N-(2,6-difluorophenyl)-1,3-dimethyl-1H-pyrazol-5-amine] | – | – | – | – | – | – | – | pest or weed control at 200 µg/mL (Alternaria solani; [11]): 100%; pest or weed control at 200 µg/mL [1, 12]: 0%; pest or weed control at 200 µg/mL [2, 13]: 100%; pest or weed control at 200 µg/mL (Septoria nodorum; [14]): 87%; pest or weed control at 200 µg/mL (Septoria tritici; [15]): 100%; pest or weed control at 200 µg/mL (Botrytis cinerea; [16]): 100%; pest or weed control at 200 µg/mL [3, 17]: 99%
15 | Cc1nn(C)c(Nc2ccc(C#N)cn2)c1-c1ccc(F)cc1Cl [compound 67] | – | – | – | – | – | – | – | Test C rating (% disease control) (Alternaria solani; [18]): 0%; Test H rating (% disease control) [1, 19]: 24%; Test J rating (% disease control) [2, 20]: 86%; Test F rating (% disease control) (Septoria nodorum; [21]): 0%; Test G rating (% disease control) (Septoria tritici; [22]): 99%; Test B rating (% disease control) (Botrytis cinerea; [23]): 95%; Test I rating (% disease control) [3, 24]: 95%
16 | Cc1nn(C)c(Oc2ccc([N+](=O)[O-])cc2)c1-c1c(F)cc(F)cc1F [compound 26] | – | – | – | – | – | – | – | Test C rating (% disease control) (Alternaria solani; [18]): 83%; Test H rating (% disease control) [1, 19]: 0%; Test J rating (% disease control) [2, 20]: 100%; Test F rating (% disease control) (Septoria nodorum; [21]): 0%; Test G rating (% disease control) (Septoria tritici; [22]): 100%; Test B rating (% disease control) (Botrytis cinerea; [23]): 99%; Test I rating (% disease control) [3, 24]: 99%
17 | Cc1nn(C)c(Oc2c(F)cc(C#N)cc2F)c1-c1ccccc1F [compound 305] | – | – | – | – | – | – | – | Test C disease control rating (Alternaria solani; tomato early blight, 100 = 100% disease control, 0 = no disease control relative to controls): 99%; Test H disease control rating ([1]; wheat leaf rust, sprayed after inoculation, 100 = 100% disease control, 0 = no disease control relative to controls): 0%; Test J disease control rating ([2]; wheat powdery mildew, sprayed the day before inoculation, 100 = 100% disease control, 0 = no disease control relative to controls): 99%; Test F disease control rating (Septoria nodorum; Septoria glume blotch on wheat, 100 = 100% disease control, 0 = no disease control relative to controls): 94%; Test G disease control rating (Septoria tritici; wheat leaf blotch, sprayed the day before inoculation, 100 = 100% disease control, 0 = no disease control relative to controls): 100%; Test B disease control rating (Botrytis cinerea; tomato Botrytis, 100 = 100% disease control, 0 = no disease control relative to controls): 99%; Test I disease control rating ([3]; wheat leaf rust, sprayed the day before inoculation, 100 = 100% disease control, 0 = no disease control relative to controls): 99%
18 | CCOc1cc(F)c(-c2c(C)nn(C)c2Nc2ccc(F)cc2F)c(F)c1 [compound 141] | – | – | – | – | – | – | – | Test C rating (% disease control) (Alternaria solani; [18]): 99%; Test H rating (% disease control) [1, 19]: 0%; Test J rating (% disease control) [2, 20]: 100%; Test F rating (% disease control) (Septoria nodorum; [21]): 98%; Test G rating (% disease control) (Septoria tritici; [22]): 100%; Test B rating (% disease control) (Botrytis cinerea; [23]): 99%; Test I rating (% disease control) [3, 24]: 99%
19 | COc1cc(Oc2c(-c3c(F)cc(F)cc3F)c(C)nn2C)ccc1Cl [compound 164] | 57 | 15 | 97 | 0 | 99 | 49 | 9 | –

From patent publication US10448639B2, “Fungicidal pyrazoles” (FMC CORPORATION, priority 2009, dated 2019)
